What was measured:
ELIC D113A/D158A = target: T1, ELIC D113A/D158A (Dickeya chrysanthemi, UniProt P0C7B7, D113A/D158A/INS163G); assay: cell-based; assay type: cell-based, Erwinia chrysanthemi; conditions: 113A/158A, agonist cysteamine
T1 construct: expressed in transfected cells; host or cells: X. laevis oocytes
Procedure: (§1) Constructs containing the gene of either the WT or mutant channels preceded by the signal sequence of the chicken α7nAchR were cloned into the pTLN vector for expression in X. laevis oocytes. After linearization of the plasmid DNA by MluI, capped complementary RNA was transcribed with the mMessage mMachine kit (Ambion) and purified with the RNeasy kit (Qiagen). For expression, 1–50 ng of RNA was injected into defolliculated oocytes. Two-electrode voltage clamp measurements were performed 1 d after injection at 20°C (OC-725B, Warner Instrument Corp.). Currents were recorded in bath solutions containing 10 mM HEPES (pH 7), 130 mM NaCl, and the indicated concentrations of cysteamine and divalent cations. In case of solutions containing Zn^2+, cysteamine was replaced by propylamine. The membrane potential in all dose–response measurements was set to −40 mV. As ELIC is permeable to divalent cations, we tested if endogenous calcium-activated chloride channels affected our measurements. To chelate intracellular calcium ions, the oocytes were incubated for 15 to 30 min in bath solutions lacking divalent ions but containing 10 µM BAPTA-AM.

ELIC WT = target: T2, ELIC WT (Dickeya chrysanthemi, UniProt P0C7B7); assay: cell-based; assay type: cell-based, Erwinia chrysanthemi; conditions: agonist cysteamine
T2 construct: expressed in transfected cells; host or cells: X. laevis oocytes (cRNA injection, pTLN vector)
Procedure: as §1

ELIC R91A = target: T3, ELIC R91A (Dickeya chrysanthemi, UniProt P0C7B7, INS163G/R91A); assay: Two-electrode voltage clamp, ELIC R91A in oocytes; assay type: cell-based, Erwinia chrysanthemi; conditions: R91A, agonist cysteamine
T3 construct: expressed in transfected cells; host or cells: X. laevis oocytes
Procedure: as §1

ELIC D86A = target: T4, ELIC D86A (Dickeya chrysanthemi, UniProt P0C7B7, D86A/INS163G); assay: Two-electrode voltage clamp, ELIC D86A in oocytes; assay type: cell-based, Erwinia chrysanthemi; conditions: agonist cysteamine
T4 construct: expressed in transfected cells; host or cells: X. laevis oocytes
Procedure: as §1

ELIC S84A [1] = target: T5, ELIC S84A (Dickeya chrysanthemi, UniProt P0C7B7, INS163G/S84A); assay: Two-electrode voltage clamp, ELIC S84A in oocytes; assay type: cell-based, Erwinia chrysanthemi; conditions: S84A, agonist cysteamine
T5 construct: expressed in transfected cells; host or cells: X. laevis oocytes
Procedure: as §1

ELIC S84A [2] = assay: Two-electrode voltage clamp, ELIC S84A in oocytes; assay type: cell-based, Erwinia chrysanthemi; conditions: S84A as printed in the N251A line (r30); Ca^2+ 10 mM; agonist cysteamine
Procedure: as §1

ELIC N251A = target: T6, ELIC N251A (Dickeya chrysanthemi, UniProt P0C7B7, N250A); assay: Two-electrode voltage clamp, ELIC N251A in oocytes; assay type: cell-based, Erwinia chrysanthemi; conditions: agonist cysteamine
T6 construct: expressed in transfected cells; host or cells: X. laevis oocytes
Procedure: as §1

ELIC D113N = target: T7, ELIC D113N (Dickeya chrysanthemi, UniProt P0C7B7, D113N/INS163G); assay: Two-electrode voltage clamp, ELIC D113N in oocytes; assay type: cell-based, Erwinia chrysanthemi; conditions: agonist cysteamine
T7 construct: expressed in transfected cells; host or cells: X. laevis oocytes
Procedure: as §1

ELIC D158A = target: T8, ELIC D158A (Dickeya chrysanthemi, UniProt P0C7B7, D158A/INS163G); assay: Two-electrode voltage clamp, ELIC D158A in oocytes; assay type: cell-based, Erwinia chrysanthemi; conditions: agonist cysteamine
T8 construct: expressed in transfected cells; host or cells: X. laevis oocytes
Procedure: as §1

ELIC D158N = target: T9, ELIC D158N (Dickeya chrysanthemi, UniProt P0C7B7, D158N/INS163G); assay: Two-electrode voltage clamp, ELIC D158N in oocytes; assay type: cell-based, Erwinia chrysanthemi; conditions: agonist cysteamine
T9 construct: expressed in transfected cells; host or cells: X. laevis oocytes
Procedure: as §1

ELIC E150A = target: T10, ELIC E150A (Dickeya chrysanthemi, UniProt P0C7B7, E150A/INS163G); assay: Two-electrode voltage clamp, ELIC E150A in oocytes; assay type: cell-based, Erwinia chrysanthemi; conditions: agonist cysteamine
T10 construct: expressed in transfected cells; host or cells: X. laevis oocytes
Procedure: as §1

ELIC E150Q = target: T11, ELIC E150Q (Dickeya chrysanthemi, UniProt P0C7B7, E150Q/INS163G); assay: Two-electrode voltage clamp, ELIC E150Q in oocytes; assay type: cell-based, Erwinia chrysanthemi; conditions: agonist cysteamine
T11 construct: expressed in transfected cells; host or cells: X. laevis oocytes
Procedure: as §1

ELIC = target: T12, ELIC (Dickeya chrysanthemi, UniProt P0C7B7, INS163G); conditions: single channel data; ref Marabelli et al., in preparation; cited from earlier work
T12 construct: expressed in transfected cells; host or cells: HEK 293 cells (ATCC CRL-1573), pcDNA3

NCCS [cysteamine]
EC50 (ELIC D113A/D158A; Ba^2+ 1 mM): 3070 µM
EC50 (ELIC D113A/D158A; Ba^2+ 5 mM): 3070 µM
EC50 (ELIC D113A/D158A; Ba^2+ 10 mM): 5420 µM
EC50 (ELIC D113A/D158A; Ca^2+ 0 mM): 2330 µM
EC50 (ELIC D113A/D158A; Ca^2+ 1 mM): 1590 µM
EC50 (ELIC D113A/D158A; Ca^2+ 5 mM): 1810 µM
EC50 (ELIC D113A/D158A; Ca^2+ 10 mM): 2960 µM
EC50 (ELIC D113A/D158A; Ca^2+ 25 mM): 3350 µM
EC50 (ELIC WT; WT/0.25Ca^2+, ACh 0 mM): 640 µM
EC50 (ELIC WT; WT/0.25Ca^2+, ACh 1 mM): 1160 µM
EC50 (ELIC WT; WT/0.25Ca^2+, ACh 5 mM): 3460 µM
EC50 (ELIC WT; WT/0.25Ca^2+, ACh 10 mM): 5080 µM
EC50 (ELIC WT; WT/0.5Ca^2+, ACh 0 mM): 1000 µM
EC50 (ELIC WT; WT/0.5Ca^2+, ACh 1 mM): 1830 µM
EC50 (ELIC WT; WT/0.5Ca^2+, ACh 5 mM): 4030 µM
EC50 (ELIC WT; WT/0.5Ca^2+, ACh 10 mM): 8450 µM
EC50 (ELIC WT; WT/1Ca^2+, ACh 0 mM): 1730 µM
EC50 (ELIC WT; WT/1Ca^2+, ACh 1 mM): 2680 µM
EC50 (ELIC WT; WT/1Ca^2+, ACh 5 mM): 5120 µM
EC50 (ELIC WT; WT/1Ca^2+, ACh 10 mM): 8240 µM
EC50 (ELIC WT; WT/BAPTA, Ca^2+ 0 mM): 360 µM
EC50 (ELIC WT; WT/BAPTA, Ca^2+ 0.25 mM): 840 µM
EC50 (ELIC WT; WT/BAPTA, Ca^2+ 0.5 mM): 1070 µM
EC50 (ELIC WT; WT/BAPTA, Ca^2+ 1.0 mM): 2230 µM
EC50 (ELIC WT; WT, ACh 1 mM): 570 µM
EC50 (ELIC WT; WT, ACh 5.0 mM): 1490 µM
EC50 (ELIC WT; WT, ACh 10.0 mM): 2250 µM
EC50 (ELIC WT; WT, Ba^2+ 1 mM): 760 µM
EC50 (ELIC WT; WT, Ba^2+ 5 mM): 2680 µM
EC50 (ELIC WT; WT, Ba^2+ 10 mM): 5270 µM
EC50 (ELIC WT; WT, Ca^2+ 0 mM): 360 µM
EC50 (ELIC WT; WT, Ca^2+ 0.1 mM): 350 µM
EC50 (ELIC WT; WT, Ca^2+ 0.25 mM): 640 µM
EC50 (ELIC WT; WT, Ca^2+ 0.5 mM): 1000 µM
EC50 (ELIC WT; WT, Ca^2+ 1.0 mM): 1730 µM
EC50 (ELIC WT; WT, Ca^2+ 2.5 mM): 2460 µM
EC50 (ELIC WT; WT, Ca^2+ 5.0 mM): 4370 µM
EC50 (ELIC WT; WT, Mg^2+ 1 mM): 1040 µM
EC50 (ELIC WT; WT, Mg^2+ 5 mM): 3050 µM
EC50 (ELIC WT; WT, Mg^2+ 10 mM): 5310 µM
EC50 (ELIC WT; WT, Sr^2+ 1 mM): 750 µM
EC50 (ELIC WT; WT, Sr^2+ 5 mM): 2110 µM
EC50 (ELIC WT; WT, Sr^2+ 10 mM): 3410 µM
EC50 (ELIC R91A; ACh 1 mM): 400 µM
EC50 (ELIC R91A; ACh 5 mM): 880 µM
EC50 (ELIC R91A; ACh 10 mM): 1780 µM
EC50 (ELIC R91A; Ca^2+ 0 mM): 90 µM
EC50 (ELIC R91A; Ca^2+ 0.5 mM): 240 µM
EC50 (ELIC R91A; Ca^2+ 1 mM): 410 µM
EC50 (ELIC R91A; Ca^2+ 5 mM): 920 µM
EC50 (ELIC R91A; TMA 10 mM): 230 µM
EC50 (ELIC R91A; TMA 25 mM): 330 µM
EC50 (ELIC R91A; TMA 50 mM): 590 µM
EC50 (ELIC D86A; Ca^2+ 0 mM): 570 µM
EC50 (ELIC D86A; Ca^2+ 1 mM): 2300 µM
EC50 (ELIC D86A; Ca^2+ 5 mM): 5310 µM
EC50 (ELIC D86A; Ca^2+ 10 mM): 11200 µM
EC50 (ELIC S84A [1]; Ca^2+ 0 mM): 360 µM
EC50 (ELIC S84A [1]; Ca^2+ 1 mM): 1550 µM
EC50 (ELIC S84A [1]; Ca^2+ 5 mM): 2740 µM
EC50 (ELIC S84A [1]; Ca^2+ 10 mM): 5430 µM
EC50 (ELIC S84A [2]): 5310 µM
EC50 (ELIC N251A; Ca^2+ 0 mM): 290 µM
EC50 (ELIC N251A; Ca^2+ 1 mM): 840 µM
EC50 (ELIC N251A; Ca^2+ 5 mM): 1900 µM
EC50 (ELIC D113N; Ca^2+ 0 mM): 920 µM
EC50 (ELIC D113N; Ca^2+ 1 mM): 1810 µM
EC50 (ELIC D113N; Ca^2+ 5 mM): 5590 µM
EC50 (ELIC D113N; Ca^2+ 10 mM): 9780 µM
EC50 (ELIC D158A; Ca^2+ 0 mM): 1780 µM
EC50 (ELIC D158A; Ca^2+ 1 mM): 1790 µM
EC50 (ELIC D158A; Ca^2+ 5 mM): 3330 µM
EC50 (ELIC D158A; Ca^2+ 10 mM): 5430 µM
EC50 (ELIC D158A; Ca^2+ 20 mM): 9380 µM
EC50 (ELIC D158N; Ca^2+ 0 mM): 3880 µM
EC50 (ELIC D158N; Ca^2+ 1 mM): 5610 µM
EC50 (ELIC D158N; Ca^2+ 5 mM): 8500 µM
EC50 (ELIC D158N; Ca^2+ 10 mM): 11200 µM
EC50 (ELIC E150A; Ca^2+ 0 mM): 1400 µM
EC50 (ELIC E150A; Ca^2+ 1 mM): 2200 µM
EC50 (ELIC E150A; Ca^2+ 5 mM): 6100 µM
EC50 (ELIC E150A; Ca^2+ 10 mM): 8990 µM
EC50 (ELIC E150Q; Ca^2+ 0 mM): 2920 µM
EC50 (ELIC E150Q; Ca^2+ 1 mM): 5290 µM
EC50 (ELIC E150Q; Ca^2+ 5 mM): 14600 µM
EC50 (ELIC E150Q; Ca^2+ 10 mM): 21900 µM
maximum Popen (ELIC): 98%

Reference: publication PMC3502511, “Inhibition of the Prokaryotic Pentameric Ligand-Gated Ion Channel ELIC by Divalent Cations” (PLoS Biology, 2012)
